From article PMC7613639, “Broad-spectrum chemicals block ROS detoxification to prevent plant fungal invasion” (Current biology : CB, 2022)

Molecular target: BcRtt109-GST (Botrytis cinerea, UniProt A0A384J919)
Experiment: in vitro acetylation of BcTol1-His6, immunoblot with anti-K122ac
Type: biochemical
Settings: 0.2 mM acetyl-CoA; acceptor BcTol1-His6; 50 mM Tris-HCl pH 8.0, 37 °C, 1 h

Sequence of BcRtt109-GST (A0A384J919 entry or part of it): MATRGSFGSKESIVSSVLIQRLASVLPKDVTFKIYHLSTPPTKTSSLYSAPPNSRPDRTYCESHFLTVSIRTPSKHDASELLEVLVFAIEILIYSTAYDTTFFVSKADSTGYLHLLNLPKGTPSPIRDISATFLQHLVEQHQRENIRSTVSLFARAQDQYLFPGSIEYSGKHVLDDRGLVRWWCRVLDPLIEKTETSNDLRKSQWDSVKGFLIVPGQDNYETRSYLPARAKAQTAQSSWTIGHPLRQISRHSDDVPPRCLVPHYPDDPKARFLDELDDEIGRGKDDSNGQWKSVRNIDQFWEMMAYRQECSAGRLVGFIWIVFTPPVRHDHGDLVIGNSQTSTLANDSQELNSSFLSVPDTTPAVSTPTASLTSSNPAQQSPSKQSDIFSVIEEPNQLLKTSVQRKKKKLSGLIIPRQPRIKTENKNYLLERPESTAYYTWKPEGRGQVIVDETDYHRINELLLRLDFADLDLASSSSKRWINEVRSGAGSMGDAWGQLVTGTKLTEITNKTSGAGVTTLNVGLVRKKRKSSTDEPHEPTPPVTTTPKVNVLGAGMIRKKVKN

For CC(=O)SCCNC(=O)CCNC(=O)[C@H](O)C(C)(C)COP(=O)(O)OP(=O)(O)OC[C@H]1O[C@@H](n2cnc3c(N)ncnc32)[C@H](O)[C@@H]1OP(=O)(O)O [acetyl-CoA], the “in vitro acetylation of BcTol1-His6, immunoblot with anti-K122ac” value was “purified BcRtt109-GST, but not GST itself, acetylates WT BcTol1 effectively in vitro”.
